# Target: Serine/threonine-protein phosphatase PP1 catalytic subunit
# Test: Inhibitory concentration against protein phosphatase 1 was determined
row,Structure (SMILES),IC50 [µM]
1,CCOC(=O)C1C(C(=O)O)[C@@H]2CC[C@H]1O2 (stereo not given in full),2.96

# Target: T1, Serine-threonine protein phosphatase 2A regulatory subunit (Gallus gallus, UniProt Q8AWE3)
# T1 sequence (Q8AWE3 whole entry): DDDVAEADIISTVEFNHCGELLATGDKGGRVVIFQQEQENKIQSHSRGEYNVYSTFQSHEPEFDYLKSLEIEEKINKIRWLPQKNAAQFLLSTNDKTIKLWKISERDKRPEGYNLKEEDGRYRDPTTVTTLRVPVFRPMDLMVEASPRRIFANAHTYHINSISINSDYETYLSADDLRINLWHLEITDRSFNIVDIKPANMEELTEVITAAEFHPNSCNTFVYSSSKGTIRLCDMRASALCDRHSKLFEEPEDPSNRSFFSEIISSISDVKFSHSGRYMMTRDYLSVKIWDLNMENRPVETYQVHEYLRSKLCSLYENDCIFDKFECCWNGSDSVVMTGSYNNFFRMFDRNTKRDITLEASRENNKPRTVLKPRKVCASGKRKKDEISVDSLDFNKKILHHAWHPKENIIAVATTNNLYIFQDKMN
# Test: Inhibitory concentration against protein phosphatase 2A (PP2A) was determined
row,Structure (SMILES),IC50 [µM]
1,O=C(O)[C@@H](Cc1ccccc1)N1C(=O)[C@@H]2[C@H](C1=O)[C@H]1CC[C@@H]2O1,> 1000
2,O=C(O)CC[C@H](C(=O)O)N1C(=O)[C@@H]2[C@H](C1=O)[C@H]1CC[C@@H]2O1,32
3,CSC[C@@H](C(=O)O)N1C(=O)[C@@H]2[C@H](C1=O)[C@H]1CC[C@@H]2O1,> 1000
4,O=C(O)[C@@H](Cc1cnc[nH]1)N1C(=O)[C@@H]2[C@H](C1=O)[C@H]1CC[C@@H]2O1,0.81
5,O=C(O)[C@H](Cc1c[nH]cn1)N1C(=O)[C@@H]2[C@H](C1=O)[C@H]1CC[C@@H]2O1,1.35
6,O=C(O)[C@H](Cc1ccccc1)N1C(=O)[C@@H]2[C@H](C1=O)[C@H]1CC[C@@H]2O1,> 1000
7,C[C@H](C(=O)O)N1C(=O)[C@@H]2[C@H](C1=O)[C@H]1CC[C@@H]2O1,150
8,O=C(O)[C@@H](Cc1c[nH]c2ccccc12)N1C(=O)[C@@H]2[C@H](C1=O)[C@H]1CC[C@@H]2O1,157
9,O=C(O)[C@H](Cc1c[nH]c2ccccc12)N1C(=O)[C@@H]2[C@H](C1=O)[C@H]1CC[C@@H]2O1,105
10,CC(C)C[C@H](C(=O)O)N1C(=O)[C@@H]2[C@H](C1=O)[C@H]1CC[C@@H]2O1,> 1000
11,C[C@@H](C(=O)O)N1C(=O)[C@@H]2[C@H](C1=O)[C@H]1CC[C@@H]2O1,> 1000
12,CC(C)C[C@@H](C(=O)O)N1C(=O)[C@@H]2[C@H](C1=O)[C@H]1CC[C@@H]2O1,> 1000

# Target: T2, Serine-threonine protein phosphatase 2A regulatory subunit (Gallus gallus) (UniProt Q8AWE3)
# T2 sequence (whole entry): T1 sequence (Q8AWE3 whole entry)
# Test: Selectivity expressed as the ratio of Protein phosphatase 2A/Protein phosphatase 1 was determined
row,Structure (SMILES),Selectivity
1,CCOC(=O)C1C(C(=O)O)[C@@H]2CC[C@H]1O2 (stereo not given in full),6.5

# System: not listed separately
# Test: Selectivity expressed as the ratio of PP2A/PP1 was determined
row,Structure (SMILES),Selectivity
1,O=C(O)CC[C@H](C(=O)O)N1C(=O)[C@@H]2[C@H](C1=O)[C@H]1CC[C@@H]2O1,3

# Source: ChEMBL document CHEMBL1133841 (Bioorg Med Chem Lett, 2001)
